Test results published in article PMC4860631, “Pharmacokinetics and tolerability of NSC23925b, a novel P-glycoprotein inhibitor: preclinical study in mice and rats” (Scientific Reports, 2016).
Read-outs that look alike come from different tables or passages of the source.

Legend:
CYP2C8 = target: T1, CYP2C8 (Homo sapiens, UniProt P10632); test: HLM-LC-MS CYP450 inhibition assay, CYP2C8; assay type: in vitro ADME
T1 construct: from tissue; host or cells: human liver microsomes
T1 sequence (P10632 1-490): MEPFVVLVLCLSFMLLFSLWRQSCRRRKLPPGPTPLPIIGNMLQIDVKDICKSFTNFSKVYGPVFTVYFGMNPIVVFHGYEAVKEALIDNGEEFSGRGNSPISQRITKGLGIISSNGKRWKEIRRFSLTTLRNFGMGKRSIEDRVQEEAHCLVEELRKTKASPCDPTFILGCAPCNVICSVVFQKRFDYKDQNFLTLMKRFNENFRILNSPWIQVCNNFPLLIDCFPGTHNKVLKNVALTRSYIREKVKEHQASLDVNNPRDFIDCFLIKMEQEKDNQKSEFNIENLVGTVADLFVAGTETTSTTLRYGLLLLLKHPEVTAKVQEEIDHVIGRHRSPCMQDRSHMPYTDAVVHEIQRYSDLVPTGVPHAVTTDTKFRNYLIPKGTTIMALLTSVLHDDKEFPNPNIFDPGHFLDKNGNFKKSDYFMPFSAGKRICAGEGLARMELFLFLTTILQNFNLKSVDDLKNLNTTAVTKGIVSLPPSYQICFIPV
Protocol: (§4) A sigmoid-shaped curve (Log(inhibitor) vs. Response-Variable slope) was fitted to the data and the IC50 was calculated using GraphPad Prism software.
(§5) This assay used a cocktail of drug-probe substrates that are specific to each isozyme with HLM and LC-MS detection[33][34]. Each test article and reference inhibitor was dissolved in 40% DMSO and 60% acetonitrile (ACN) mixture. […] Substrates were then added to their respective well containing the compound/HLM solution to start the reaction. […] The solution was centrifuged at 4 °C for 30 min at 3,700 rpm and the supernatant was transferred for LC-MS analysis. The concentrations of the metabolites were determined from standard curves using commercially available metabolite standards. Compounds were tested in triplicate. The half maximal inhibitory concentration (IC50) values were determined by plotting the metabolite formation over the logarithm of the compound concentration using Prism 5.0 software (GraphPad Software Inc., San Diego, CA).

CYP2C9 = target: T2, CYP2C9 (Homo sapiens, UniProt P11712); test: HLM-LC-MS CYP450 inhibition assay, CYP2C9; assay type: in vitro ADME
T2 construct: from tissue; host or cells: human liver microsomes
T2 sequence (P11712 whole entry): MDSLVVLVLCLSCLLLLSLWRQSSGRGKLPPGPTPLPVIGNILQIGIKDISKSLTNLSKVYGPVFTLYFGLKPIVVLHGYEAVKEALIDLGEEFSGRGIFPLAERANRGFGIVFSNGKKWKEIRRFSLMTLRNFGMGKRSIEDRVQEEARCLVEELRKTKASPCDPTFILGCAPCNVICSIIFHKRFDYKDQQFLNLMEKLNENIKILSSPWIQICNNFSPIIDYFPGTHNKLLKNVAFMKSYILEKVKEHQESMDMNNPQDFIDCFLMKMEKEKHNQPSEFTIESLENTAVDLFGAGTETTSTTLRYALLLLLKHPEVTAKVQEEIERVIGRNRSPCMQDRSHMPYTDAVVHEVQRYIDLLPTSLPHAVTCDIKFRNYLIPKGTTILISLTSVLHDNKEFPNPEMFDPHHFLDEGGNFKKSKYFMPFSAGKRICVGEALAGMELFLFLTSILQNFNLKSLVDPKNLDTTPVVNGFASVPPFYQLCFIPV
Protocol: as §4, §5

CYP2C19 = target: T3, CYP2C19 (Homo sapiens, UniProt P33261); test: HLM-LC-MS CYP450 inhibition assay, CYP2C19; assay type: in vitro ADME
T3 construct: from tissue; host or cells: human liver microsomes
T3 sequence (P33261 whole entry): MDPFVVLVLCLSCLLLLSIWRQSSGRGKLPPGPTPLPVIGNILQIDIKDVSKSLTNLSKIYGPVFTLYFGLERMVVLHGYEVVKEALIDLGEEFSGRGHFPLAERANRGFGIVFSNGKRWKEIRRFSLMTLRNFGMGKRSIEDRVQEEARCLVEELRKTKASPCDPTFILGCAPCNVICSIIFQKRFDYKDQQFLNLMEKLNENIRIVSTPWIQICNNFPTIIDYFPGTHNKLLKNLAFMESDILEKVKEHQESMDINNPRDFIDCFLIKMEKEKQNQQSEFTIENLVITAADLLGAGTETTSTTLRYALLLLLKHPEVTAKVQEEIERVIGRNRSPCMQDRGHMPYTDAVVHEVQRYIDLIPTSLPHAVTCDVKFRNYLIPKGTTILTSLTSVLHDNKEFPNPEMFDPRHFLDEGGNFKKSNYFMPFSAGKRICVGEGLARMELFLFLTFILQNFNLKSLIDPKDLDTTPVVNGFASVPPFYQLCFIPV
Protocol: Compounds were tested in triplicate.

CYP3A4 = target: T4, CYP3A4 (Homo sapiens, UniProt P08684); test: HLM-LC-MS CYP450 inhibition assay, CYP3A4; assay type: in vitro ADME
T4 construct: from tissue; host or cells: human liver microsomes
T4 sequence (P08684 whole entry): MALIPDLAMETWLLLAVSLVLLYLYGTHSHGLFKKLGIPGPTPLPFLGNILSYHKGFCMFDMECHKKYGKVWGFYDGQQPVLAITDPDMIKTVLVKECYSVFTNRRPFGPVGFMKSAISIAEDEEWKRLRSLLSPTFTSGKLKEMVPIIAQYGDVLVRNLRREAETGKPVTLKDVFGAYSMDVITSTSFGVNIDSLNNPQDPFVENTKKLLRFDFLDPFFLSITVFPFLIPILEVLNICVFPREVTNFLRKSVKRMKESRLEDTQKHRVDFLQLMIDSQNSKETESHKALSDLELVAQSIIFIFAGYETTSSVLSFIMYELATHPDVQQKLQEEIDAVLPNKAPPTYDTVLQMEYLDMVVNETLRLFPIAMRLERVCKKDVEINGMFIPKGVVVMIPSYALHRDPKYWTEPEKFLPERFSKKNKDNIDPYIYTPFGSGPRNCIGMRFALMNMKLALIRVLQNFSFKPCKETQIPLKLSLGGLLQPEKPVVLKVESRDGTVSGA
Protocol: as §4, §5

[1] = Determination of maximum tolerated dose (MTD) in rats; assay type: in vivo; conditions: Sprague-Dawley, in vivo, read-out: tolerated dosage (MTD study)
Protocol: (§1) The MTD determination assay was composed of sighting study and main study. For the sighting study of the determination maximum tolerable dose (MTD) of NSC23925b, one of each animal (one female rat, one male rat, one female mouse, and one male mouse) was used at each I.V. and I.P. injection dose level. The starting dose was selected from the fixed dose levels (5, 50, 500, 2000 mg/kg) as a dose expected to produce evident toxicity. The first animal was dosed and observed. Time of appearance, degree, and lasting/recovery time of signs were recorded in details. Afterwards, animals were observed twice on the dosing day and then changed to daily observation. The observation lasted at least 14 days. If the first animal died or appeared impaired, the second animal received a middle dose of the two doses and vice versa. The sighting study was completed when a decision on the starting dose for the main study was made.
(§2) During the main study, a total of five animals of one sex were used for each dose level investigated. The five animals were made up of one animal from the sighting study dosed at the selected dose level together with an additional four animals. Each group received one of the fixed doses by I.V. and I.P. based on the sighting study. If the first animal died or appeared impaired, the second animal received a middle dose of the two doses and vice versa.
(§3) Animals were fasted overnight prior to dosing. Following the period of fasting, the animals were weighed and the dose was calculated according to the body weight. After the animals were administrated a dose volume of 10 mL/kg, food was withheld for another 3–4 hours. Individual weights of animals were determined shortly before the test substance was administered and twice weekly thereafter. Weight changes were calculated and recorded. Animals injected with saline were the control group for the weight alteration.

SD rats = test: as above; assay type: in vivo; conditions: SD rats, 5 exposed
Protocol: as §1, §2, §3

[2] = male, Sprague-Dawley, rat, in vivo
in vivo = conditions: male, Sprague-Dawley, rat; for AUC(0-inf): AUC0-inf; for AUC(0-t): AUC0-t; for k el: Kel; for half-life: t1/2
CYP2D6 = CYP2D6 (Homo sapiens, UniProt P10635); test: HLM-LC-MS CYP450 inhibition assay, CYP2D6
Chain of CYP2D6 (P10635 whole entry): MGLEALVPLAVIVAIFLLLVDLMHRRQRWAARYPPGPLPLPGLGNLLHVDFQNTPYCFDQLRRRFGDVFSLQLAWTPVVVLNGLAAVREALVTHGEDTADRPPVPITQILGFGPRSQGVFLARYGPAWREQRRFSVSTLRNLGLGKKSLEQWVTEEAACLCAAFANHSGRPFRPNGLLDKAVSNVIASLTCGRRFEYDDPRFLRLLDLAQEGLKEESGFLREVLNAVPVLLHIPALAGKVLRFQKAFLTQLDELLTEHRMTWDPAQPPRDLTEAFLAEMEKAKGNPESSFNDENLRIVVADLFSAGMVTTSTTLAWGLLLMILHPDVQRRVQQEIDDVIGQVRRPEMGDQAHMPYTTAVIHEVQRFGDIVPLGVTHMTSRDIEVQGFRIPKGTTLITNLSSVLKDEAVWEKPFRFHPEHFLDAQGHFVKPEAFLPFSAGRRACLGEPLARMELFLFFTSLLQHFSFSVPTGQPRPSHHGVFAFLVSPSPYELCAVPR
Protocol: as §4, §5

With `COc1ccc(-c2cc(C(O)C3CCCCN3)c3ccccc3n2)cc1` (stereo not shown) [NSC23925b, (2-(4-methoxyphenyl)-4-quinolinyl)(2-piperidinyl)methanol] the CYP inhibitor class (CYP2C8) was “weak (IC50 values of >10 μM)”, the IC50 (CYP2C8; substrate paclitaxel 10 μM, 6α-hydroxylation, read-out: Compound IC50) was greater than 10 µM and the CYP inhibitor class (CYP2C9) was “weak (IC50 values of >10 μM)”. The IC50 (CYP2C9; substrate diclofenac 10 μM, 4-hydroxylation, read-out: Compound IC50) was greater than 10 µM, the CYP inhibitor class (CYP2C19) was “weak (IC50 values of >10 μM)” and the IC50 (CYP2C19; substrate S-mephenytoin 35 μM, 4-hydroxylation, read-out: Compound IC50) was greater than 10 µM. The CYP inhibitor class (CYP3A4) was “weak (IC50 values of >10 μM)”, the IC50 (CYP3A4; substrate midazolam 5 μM, 1-hydroxylation, read-out: Compound IC50) was greater than 10 µM and the IC50 (CYP3A4; substrate not specified, read-out: IC50) was greater than 10 µM. It also gave an IC50 (CYP3A4; substrate testosterone 80 μM, 6ß-hydroxylation, read-out: Compound IC50) greater than 10 µM, an MTD ([1]; iv, female rats, I.V., one female rat moribund) of 47.2 mg/kg and an MTD ([1]; rat, ip, male rats, I.P., all in good status) of 33.1 mg/kg. For the same compound, the MTD ([1]; rat, iv, male rats, I.V.) was 38.8 mg/kg, the “Number of Death” value (SD rats; I.P., 33.10 mg/kg, male) was 0 and the “Number of Death” value (SD rats; I.P., 47.20 mg/kg, female) was 1. The “Number of Death” value (SD rats; I.V., 38.80 mg/kg, male) was 0, the “Number of Death” value (SD rats; I.V., 47.20 mg/kg, female) was 1 and the AUMC0-inf ([2]; ip, 5 mg/kg) was 38450 ± 36415 h·h·ng·mL^−1. The AUMC0-t ([2]; ip, 5 mg/kg) was 13328 ± 5611 h·h·ng·mL^−1, the F ([2]; ip, 5 mg/kg) was 110.6 ± 47.4% and the AUMC0-inf ([2]; iv, 2.5 mg/kg) was 10502 ± 642 h·h·ng·mL^−1. It also gave an AUMC0-t ([2]; iv, 2.5 mg/kg) of 5504 ± 317 h·h·ng·mL^−1, an MRTIV ([2]; iv, 2.5 mg/kg) of 11.7 ± 0.512 h and a Cmax (in vivo; ip, 5 mg/kg) of 128 ± 44.3 ng/mL. The AUC(0-inf) (in vivo; ip, 5 mg/kg) was 1990 ± 855 ng·h/mL, the AUC(0-t) (in vivo; ip, 5 mg/kg) was 1390 ± 173 ng·h/mL and the k el (in vivo; ip, 5 mg/kg) was 2.29e-05 s⁻¹. The half-life (in vivo; ip, 5 mg/kg) was 554 ± 226 min, the Tmax (in vivo; ip, 5 mg/kg, tmax) was roughly 2.17 h and the AUC(0-inf) (in vivo; iv, 2.5 mg/kg) was 902 ± 57.4 ng·h/mL. The AUC(0-t) (in vivo; iv, 2.5 mg/kg) was 766 ± 51.9 ng·h/mL, the clearance (in vivo; iv, 2.5 mg/kg, CL) was 46.3 ± 3.06 mL/min/kg and the k el (in vivo; iv, 2.5 mg/kg) was 2.18e-05 s⁻¹. For the same compound, the Vd (in vivo; iv, 2.5 mg/kg, VdSS) was 32.4 ± 3.06 L/kg, the half-life (in vivo; iv, 2.5 mg/kg) was 532 ± 32.5 min and the IC50 (CYP2D6; Compound IC50, HLM, substrate bufuralol 10 μM) was 1410 nM. For the same compound, the CYP inhibitor class (CYP2D6; HLM, bufuralol) was “moderate (1–10 μM)”.
